{"source": "patent US20220009931A1", "about": "“NOVEL UREA 6,7-DIHYDRO-4H-PYRAZOLO[1,5-A]PYRAZINES ACTIVE AGAINST THE HEPATITIS B VIRUS (HBV)” (AICURIS GMBH & CO. KG, priority 2018, published 2022)", "tested_on": "HBV", "conditions": "Hepatitis B virus, HePAD38, 144 h, read-out: Cell Activity", "data": [{"smiles": "O=C(Nc1ccc(F)c(Cl)c1)N1CCn2nc(NS(=O)(=O)C3(CO)CC3)cc2C1", "note": "[Example 13, N-(3-chloro-4-fluorophenyl)-2-[1-(hydroxymethyl)cyclopropanesulfonamido]-4H,5H,6H,7H-pyrazolo[1,5-a]pyrazine-5-carboxamide]", "values": [{"measurement": "EC50", "value": "< 1000", "unit": "nM"}]}]}
